What was measured:
physchem = assay type: physicochemical; conditions: aqueous buffer, kinetic from dmso stock; nephelometry, PBS pH 7.0-7.3, 1% DMSO, 25° C., 90 min
Protocol: General Experimental: Nephelometry experiments were performed using untreated Corning® Costar® 96-well black polystyrene plates with clear flat bottoms. Sample stock solutions and serial dilutions were prepared with DriSolv® DMSO purchased from MilliporeSigma. All 100-fold dilutions and replicate experiments were prepared using Gibco® Dulbecco's phosphate-buffered saline (DPBS, no calcium, no magnesium) with a pH range of 7.0-7.3 as aqueous media. […] Nephelometry data was obtained using a NEPHELOstar® microplate reader and processed with MARS data analysis software from BMG LabTech.
Procedure for Nephelometry Experiments: Tested compounds were dissolved in 100% DMSO to make stock solutions of specified concentrations, ranging from 10 mM minimum up to 50 mM maximum. The sample then underwent serial dilution in a 96-well plate (Corning® Costar®). Well A1 of the plate contained 100% DMSO. […] Using a 12 channel multichannel pipette, 2.5 μL of sample from row A was transferred to each well in row B through row H of the plate. Next, 30 μL of PBS (pH=7.0-7.3) was added to row B through row H, providing each well with 32.5 μL. The plate was then incubated for 30 sec with shaking. Finally, 217.5 μL of PBS buffer was added to row B through row H, and the entire plate was incubated with shaking at 25° C. for 90 min. Note: The final volume of DMSO in actual experiments with PBS buffer was 1% throughout the plate. After 90 min, the 96-well plate was analyzed with a NEPHELOstar® instrument and the data was processed with MARS data analysis software.

[1] = Liver microsome stability assay (HLM); assay type: in vitro ADME; conditions: human, microsomes, pH 7.4; 3 μM test compound, NADPH; read-out: T½ in HLM
Protocol: General Experimental: Human and mouse liver microsomes were purchased from Xenotech at 20 mg/mL. NADPH (Sigma-Aldrich) 10 mM stocks were prepared in deionized water.
Procedure for Liver Microsome Stability Assay: Test compounds and positive controls were dissolved in 100% DMSO to make 10 mM stock solutions. Verapamil (Sigma-Aldrich) and diphenhydramine (Sigma-Aldrich) were used as positive controls for both human liver microsomes (HLM) and mouse liver microsomes (MLM). The 10 mM stock solutions of test and control compounds were further diluted in potassium phosphate buffer (100 mM, pH 7.4) to 500 μM to ensure that the organic solvent content was <0.2%. The liver microsome (HLM or MLM) assay was prepared in a 1.5 mL Eppendorf tube with a final volume of 1100 μL for duplicate runs. Each reaction contained phosphate buffer (928.4 μL), liver microsomes (55 μL), and test compound (6.6 μL of 500 μM), resulting in a final concentration of 3 μM for the test compound. The reaction was initiated with 110 μL of 10 mM NADPH. Aliquots (100 μL) were removed in duplicate at 0, 5, 10, 15, and 30 min and quenched in […] of 100% cold methanol which contained internal standard (ISTD: d5-7-ethoxy coumarin 2 μM). The aliquots were centrifuged at 12,000 g for 5 min, and the supernatant was transferred and placed in an LC-MS vial. Each time point was assessed by LC-MS/MS, and the area under the m/z curve (AUC), based on the MRM transition, was integrated w.r.t the ISTD. Positive controls were conducted at a final volume of 550 μL to enable a single run for each time point. Negative controls in the absence of NADPH were performed with the test and control compounds, respectively, at a final volume of 150 μL and measured at the most prolonged time point. Control compounds were processed and analyzed like test compounds. Each time point was run in triplicates on LC-MS/MS followed by in-between blank washes to avoid the carryover and to equilibrate the column. Half-life (T1/2) was calculated using the data obtained from LC-MS/MS and by plotting ln (% remaining of the parent prodrug) versus time and performing linear regression to determine slope. Slope=−k and T1/2=0.693/k for first-order kinetics.

[2] = Plasma stability assay (human plasma); assay type: in vitro ADME; conditions: 37° C., read-out: T½ in human plasma (converted)
Protocol: General Experimental: Procaine and Procainamide were purchased from Sigma-Aldrich. Human plasma was obtained from BioIVT (Cat. No. […]2N) and 1X Dulbecco's PBS (pH 7.4, Gibco) was obtained from Thermos Fischer. Stock solutions were prepared in 100% DMSO, and suitable dilutions of target analytes were prepared in methanol for method development.
Procedure for Plasma Stability Assay: Test compounds were dissolved in DMSO to make a stock solution of 10 mM and then diluted to 500 μM in buffer (or 70% MeOH). Human plasma was thawed at ambient temperature and is aliquoted ([…]) to a 1.5 mL Eppendorf tube in duplicates (A and B) for each compound. Plasma was incubated at 37° C. for 10 minutes in an incubator shaker at 150 rpm; the reaction was initiated by the addition of the test compound (6.0 μL) and vortex mixing. The total reaction volume was 1000 μL where the final organic solvent concentrations were 0.6% MeOH and 0.03% DMSO. The spiked plasma samples were incubated at 37° C. for 4 hrs. The reactions were terminated at time points 0, 15, 30, 60, 120, 180, and 240 min by taking a 100 μL aliquot from the test incubation mixture and immediately quenching it in ice-cold acetonitrile containing internal standard (150 μL with 2 μM ISTD), followed by a quick vortex mixing. In addition, matrix blank was prepared by adding acetonitrile solutions containing ISTD to plasma samples without any of the analytes or control compounds. Also, an additional tube was made to measure compound degradation in PBS buffer. The samples were centrifuged at 15000 rpm for 25 min at 4° C. The supernatant was transferred to an LC-MS vial for analysis by LC/MS-MS. Each time point was run in duplicates followed by in-between blank washes to avoid the carryover and to equilibrate the column. Half-life (T1/2) was calculated using the data obtained from LC-MS/MS and by plotting ln (% remaining of the parent prodrug) versus time and performing linear regression to determine slope. Slope=−k and T1/2=0.693/k for first-order kinetics.
These positive controls were run in parallel to test the systems for competency.

Row | Structure (SMILES) | solubility (physchem) | half-life [1] | half-life [2] | half-life ([2]; unit min)
1 | C=C(C)[C@@H]1CCC(C)=C[C@H]1c1c(O)cc(CCCCC)cc1OC(=O)C1(OP(=O)(O)OCC(CCC)CCC)CC1.N [14h, 1-((((1′R,2′R)-6-hydroxy-5′-methyl-4-pentyl-2′-(prop-1-en-2-yl)-1′,2′,3′,4′-tetrahydro-[1,1′-biphenyl]-2-yl)oxy)carbonyl)cyclopropyl (2-propylpentyl) phosphate ammonium salt] | 66 ± 3.17 µM | 26 min | > 240 min | –
2 | C=C(C)[C@@H]1CCC(C)=C[C@H]1c1c(O)cc(CCCCC)cc1OC(=O)C1(OP(=O)(O)OCCOC)CC1.N [14i, 1-((((1′R,2′R)-6-hydroxy-5′-methyl-4-pentyl-2′-(prop-1-en-2-yl)-1′,2′,3′,4′-tetrahydro-[1,1′-biphenyl]-2-yl)oxy)carbonyl)cyclopropyl (2-methoxyethyl) phosphate ammonium salt] | > 500 µM | 19 min | > 240 min | –
3 | C=C(C)[C@@H]1CCC(C)=C[C@H]1c1c(O)cc(CCCCC)cc1OC(=O)C(C)(C)OP(=O)(O)O.N.N [7e, 1-(((1′R,2′R)-6-hydroxy-5′-methyl-4-pentyl-2′-(prop-1-en-2-yl)-1′,2′,3′,4′-tetrahydro-[1,1′-biphenyl]-2-yl)oxy)-2-methyl-1-oxopropan-2-yl phosphate di-ammonium salt] | > 500 µM | – | – | 24 min
4 | C=C(C)[C@@H]1CCC(C)=C[C@H]1c1c(O)cc(CCCCC)cc1OC(=O)C1(OP(=O)(O)OCCCCC)CC1.N [14b, 1-((((1′R,2′R)-6-hydroxy-5′-methyl-4-pentyl-2′-(prop-1-en-2-yl)-1′,2′,3′,4′-tetrahydro-[1,1′-biphenyl]-2-yl)oxy)carbonyl)cyclopropyl pentyl phosphate ammonium salt] | 276 ± 4.52 µM | 24 min | 576 min | –
5 | C=C(C)[C@@H]1CCC(C)=C[C@H]1c1c(O)cc(CCCCC)cc1OC(=O)OCCCCOP(=O)(O)O.N.N [29c, (1′R,2′R)-6-hydroxy-5′-methyl-4-pentyl-2′-(prop-1-en-2-yl)-1′,2′,3′,4′-tetrahydro-[1,1′-biphenyl]-2-yl(4-(phosphonooxy)butyl) carbonate di-ammonium salt] | > 500 µM | 25 min | > 240 min | –
6 | C=C(C)[C@@H]1CCC(C)=C[C@H]1c1c(O)cc(CCCCC)cc1OC(=O)C1(OP(=O)(O)OCCC(C)C)CC1.N [14c, 1-((((1′R,2′R)-6-hydroxy-5′-methyl-4-pentyl-2′-(prop-1-en-2-yl)-1′,2′,3′,4′-tetrahydro-[1,1′-biphenyl]-2-yl)oxy)carbonyl)cyclopropyl isopentyl phosphate ammonium salt] | 345 ± 4.51 µM | 24 min | > 240 min | –
7 | C=C(C)[C@@H]1CCC(C)=C[C@H]1c1c(O)cc(CCCCC)cc1OC(=O)NCCCOP(=O)(O)O.N.N [38c, (1′R,2′R)-6-hydroxy-5′-methyl-4-pentyl-2′-(prop-1-en-2-yl)-1′,2′,3′,4′-tetrahydro-[1,1′-biphenyl]-2-yl (3-(phosphonooxy)propyl)carbamate di-ammonium salt] | > 500 µM | 73 min | > 240 min | –
8 | C=C(C)[C@@H]1CCC(C)=C[C@H]1c1c(O)cc(CCCCC)cc1OC(=O)OCCCOP(=O)(O)O.N.N [29b, (1′R,2′R)-6-hydroxy-5′-methyl-4-pentyl-2′-(prop-1-en-2-yl)-1′,2′,3′,4′-tetrahydro-[1,1′-biphenyl]-2-yl(3-(phosphonooxy)propyl) carbonate di-ammonium salt] | > 500 µM | 19 min | > 240 min | –
9 | C=C(C)[C@@H]1CCC(C)=C[C@H]1c1c(O)cc(CCCCC)cc1OC(=O)C1(OP(=O)(O)OCCCCCCC)CC1.N [14e, heptyl (1-((((1′R,2′R)-6-hydroxy-5′-methyl-4-pentyl-2′-(prop-1-en-2-yl)-1′,2′,3′,4′-tetrahydro-[1,1′-biphenyl]-2-yl)oxy)carbonyl)cyclopropyl) phosphate ammonium salt] | 57 ± 1.24 µM | 45 min | > 240 min | –
10 | C=C(C)[C@@H]1CCC(C)=C[C@H]1c1c(O)cc(CCCCC)cc1OC(=O)C(C)OP(=O)(O)O.N.N (stereo partly drawn) [7d, 1-(((1′R,2′R)-6-hydroxy-5′-methyl-4-pentyl-2′-(prop-1-en-2-yl)-1′,2′,3′,4′-tetrahydro-[1,1′-biphenyl]-2-yl)oxy)-1-oxopropan-2-yl phosphate di-ammonium salt] | > 500 µM | 50 min | – | 21 min
11 | C=C(C)[C@@H]1CCC(C)=C[C@H]1c1c(O)cc(CCCCC)cc1OC(=O)C1(OP(=O)(O)OCCCCCCCCC)CC1.N [14f, 1-((((1′R,2′R)-6-hydroxy-5′-methyl-4-pentyl-2′-(prop-1-en-2-yl)-1′,2′,3′,4′-tetrahydro-[1,1′-biphenyl]-2-yl)oxy)carbonyl)cyclopropyl nonyl phosphate ammonium salt] | 67 ± 5.98 µM | > 30 min | > 240 min | –
12 | C=C(C)[C@@H]1CCC(C)=C[C@H]1c1c(O)cc(CCCCC)cc1OC(=O)OCOP(=O)(O)O.N.N [compound 24, (1′R,2′R)-6-hydroxy-5′-methyl-4-pentyl-2′-(prop-1-en-2-yl)-1′,2′,3′,4′-tetrahydro-[1,1′-biphenyl]-2-yl ((phosphonooxy)methyl) carbonate di-ammonium salt] | > 500 µM | – | > 240 min | –
13 | C=C(C)[C@@H]1CCC(C)=C[C@H]1c1c(O)cc(CCCCC)cc1OC(=O)C1CC(OP(=O)(O)O)C1.N.N (stereo partly drawn) [7c, 3-((((1′R,2′R)-6-hydroxy-5′-methyl-4-pentyl-2′-(prop-1-en-2-yl)-1′,2′,3′,4′-tetrahydro-[1,1′-biphenyl]-2-yl)oxy)carbonyl)cyclobutyl phosphate di-ammonium salt] | > 500 µM | 53 min | 432 min | –
